For one assay, the system named is cSrc. Description: Immunofluorescence: translocation of cSrc from the perinuclear region to the cell periphery. It is filed as cell-based, mouse. The conditions noted are these: SYF cells, 100 nM PMA with 6 μM bisindolylmaleimide or 10 μM LY. As to the method: FIG. 2: Inhibition of PI3K blocks translocation of cSrc from the perinuclear region of mouse embryo fibroblast in response to PMA treatment. SYF and p85−/− null cells were transiently transfected with cSrc and labeled for avian cSrc using EC10, an avian-specific monoclonal antibody (1:500). EC10 was visualized with anti-mouse Atexa Fluor 488 (false colored red for consistency). Cells treated with 100 nM PMA (panel b) induced translocation of cSrc to the cell periphery as indicated by the arrows. However, cells treated with 100 nM PMA in conjunction with 6 μM bisindolylmaleimide (panel c) or 10 μM LY (panel d) blocked the translocation of cSrc as indicated by the arrows. […] (n=nucleus) Bars represent 20 μM.
SYF, SYF/cSrc, p85α+/+ and p85−/− cells were cultured in standard culture media. Transient transfections of SYF, SYF/cSrc, p85α+/+ cells for immunofluorescence were carried out using LipofectAMINE™ Reagent (Invitrogen) as per manufacturer's protocol. Briefly, Approximately 5.0-8.0×10^4 cells per well were transfected at 50-70% confluent on coverstips with 2-4 μg of plasmid DNA and incubated for 3-4 hours. Thirty-six hours after transfection, cells were serum starved for 12 hours, treated, and subsequently fixed and permeablized as previously described (Qian, Y. et. al., 1998). Cells were treated with a PKC activator, 100 nM PMA for 5 or 15 minutes or in combination with the following pretreatments; a PKC inhibitor, 6 μM bisindolylmaleimide [I] for six hours; or PI3K inhibitor, 10 μM LY294002 for six hours; 50 nM Wortmannin for 30 minutes; and/or a Src family inhibitor, 5 μM PP1 for six hours. For actin labeling, a 1:500 dilution of TRITC-phalloidin was used as labeled in the figures. Primary antibody concentrations used were diluted in 5% Bovine Serum Albumin (BSA) dissolved in 1× phosphate-buffered saline (PBS): EC10 mAb-1:500; Phospho-Src Family (Y416) pAb-1:250; Anti-PI-3,4,5-P3 mAb-1:100; Anti-AFAP-110 (F1)pAb-1:1000; Anti-cSrc pAb-1:500; Anti-flag-1:1000. […]

For assay [1], the system named is AFAP-110 colocalization with cSrc and cSrc activation. Description: Immunofluorescence: PMA-induced colocalization of AFAP-110 with cSrc and cSrc activation in mouse embryo fibroblasts. The class given is cell-based. The conditions noted are these: 100 nM PMA 15 min. As to the method: FIG. 1: LY294002 blocks PMA-induced colocalization between AFAP-110 and cSrc, and subsequent cSrc activation. A) SYF cells transiently co-expressing GFP-AFAP-110 and cSrc were untreated (panels a-d), treated with 100 nM PMA for 15 minutes (panels e-h), or treated with PMA and either 6 μM bisindolylmaleimide (panels i-I), 10 μM LY294002 (panels m-p) or 50 nM Wortmannin (panels q-t). Fixed cells were immunolabeled with avian specific cSrc antibody, EC10 (1:500), and phospho-Src-family (Tyr416) (1:250) as described in the methods section. Secondary antibodies used were Atexa 546 anti-mouse for EC10 and Alexa 647 anti-rabbit for phospho-Src-family (Tyr416). A merged image was generated to determine colocalization between AFAP-110 and cSrc. Bars represent 20 μM.
D) Knockout MEFs (p85−/−) were transfected with GFP-AFAP-110 and cSrc. Fixed cells were immunolabeled with EC10 (1:500) and phospho-Src-family (Tyr416) (1:250) as described in the methods section. Secondary antibodies used were Alexa 546 anti-mouse for EC10 and Alexa 647 anti-rabbit for phospho-Src-family (Tyr416). Cells treated with 100 riM PMA for 15 minutes (panels e-h). Images were merged to determine colocalization of cSrc and GFP-AFAP-110. Bars represent 20 μm. Mouse embryo fibroblast cells that express the p85α isoform of the PI3K regulatory subunit (p85α+/+) were transfected with GFP-AFAP-110 and cSrc. Fixed cells were immunolabeled with EC10 (1:500) and phospho-Src-family (Tyr416) (1:250) as described in the methods section. Secondary antibodies used were Alexa 546 anti-mouse for EC10 and Alexa 647 anti-rabbit for phospho-Src-family (Tyr416). Images were merged to determine colocalization of cSrc and GFP-AFAP-110. Bars represent 20 μm.
(§1) SYF, SYF/cSrc, p85α+/+ and p85−/− cells were cultured in standard culture media. Transient transfections of SYF, SYF/cSrc, p85α+/+ cells for immunofluorescence were carried out using LipofectAMINE™ Reagent (Invitrogen) as per manufacturer's protocol. Briefly, Approximately 5.0-8.0×10^4 cells per well were transfected at 50-70% confluent on coverstips with 2-4 μg of plasmid DNA and incubated for 3-4 hours. Thirty-six hours after transfection, cells were serum starved for 12 hours, treated, and subsequently fixed and permeablized as previously described (Qian, Y. et. al., 1998). Cells were treated with a PKC activator, 100 nM PMA for 5 or 15 minutes or in combination with the following pretreatments; a PKC inhibitor, 6 μM bisindolylmaleimide [I] for six hours; or PI3K inhibitor, 10 μM LY294002 for six hours; 50 nM Wortmannin for 30 minutes; and/or a Src family inhibitor, 5 μM PP1 for six hours. For actin labeling, a 1:500 dilution of TRITC-phalloidin was used as labeled in the figures. Primary antibody concentrations used were diluted in 5% Bovine Serum Albumin (BSA) dissolved in 1× phosphate-buffered saline (PBS): EC10 mAb-1:500; Phospho-Src Family (Y416) pAb-1:250; Anti-PI-3,4,5-P3 mAb-1:100; Anti-AFAP-110 (F1)pAb-1:1000; Anti-cSrc pAb-1:500; Anti-flag-1:1000. All fluorescent secondary and phalloidin antibodies were diluted 1:200 in 5% BSA, and are labeled according to figure legends. Cells were washed and mounted on slides with Fluoromount-G (Fisher). A Zeiss LSM 510 confocal microscope was used to scan images of about 1 μM in thickness. To prevent cross-contamination between the different fluorochromes, each channel was imaged sequentially using the multitrack recording module before merging the images. For all figures, representative cells are shown (>100 cells examined per image shown).
We utilized SYF cell lines as a model system, mouse embryo fibroblasts engineered to contain null mutations in the c-src,fyn, and c-yes genes (Klinghoffer, R. A. et. al., 1999). The cells were transiently co-transfected with constructs that encode cSrc and GFP-tagged AFAP-110, as previously described (Gatesman, A. et. al., 2004). […]

The subject of the next assay is PI3K. Description: Immunofluorescence of Ptdlns-3,4,5-P3 production in SYF/cSrc cells. The class given is cell-based, mouse. Conditions: 100 nM PMA with 6 μM bisindolylmaleimide [I], 50 nM wortmannin, LY294002 or 5 μM PP1. As to the method: SYF/cSrc cells were serum-starved for 24 hours. Cells stimulated with 10% serum (panels c-f), 100 nM PMA for 5 (panels g-h), or 15 minutes (panels i-j); as well as treated with 100 nM PMA in combination with 6 μM bisindolylmaleimide [I] (panels k-I) or 50 nM wortmannin (panels m-n). Cells treated with 100 nM PMA in combination with 5 μM PP1 (panel o-p) and Ptdlns-3,4,5-P3 levels evaluated. Cells were immunolabeled with a PI-3,4,5-P3-specific antibody (Echelon, Inc.;1:100) and TRITC-phalloidin (1:500). Secondary antibody for anti-PI-3,4,5-P3 (1:100) was Alexa IgM 647 anti-mouse (1:200). Bars represent 20 μm.
as §1
Ptdlns-3,4,5-P3 production was measured using the anti-Ptdlns-3,4,5-P3 antibody (Echelon, inc.) for analysis by immunofluorescence and contrasted with stress filament integrity, measured using TRITC-phalloidin as previously described (Chen, R. et. al., 2002; Hama, H. et. al., 2004). SYF/cSrc cells were left untreated or treated with serum as controls for PI3K activation. […] In addition, SYF/cSrc cells were stimulated with PMA for 5 or 15 minutes.

A further assay has as its target T1, PH domain of DAPP1 (Homo sapiens, UniProt Q9UN19).
T1 construct: GST-fusion proteins that expressed the PH domain of DAPP1 as a positive control; made in house; host or cells: bacteria (plasmid provided by Mark Lemmon)
T1 sequence (Q9UN19 164-259 limits assumed): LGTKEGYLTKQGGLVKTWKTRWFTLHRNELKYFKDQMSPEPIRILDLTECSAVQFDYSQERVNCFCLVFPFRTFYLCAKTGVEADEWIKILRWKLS
Description: Lipid binding assay (Far Western), GST-DAPP1. Conditions: 0.5 μg/ml fusion protein. On the procedure: (§2) FIG. 5: The phospholipid binding properties of the PH domains of AFAP-110. A) Pleckstrin homology fusion proteins, GST-PH1, GST-PH2 and GST-DAPP1, were purified from bacteria by affinity chromatography. Phospholipids were spotted onto PVDF membranes as described in the methods section. The membranes were incubated overnight with 0.5 μg/ml • GST-PH1, GST-PH2 or GST-DAPP1. Washed membranes were incubated with anti-GST antibody and exposed to film.
C) Fusion protein, GST-DAPP1, was purified from bacteria by affinity chromatography. Two-fold changes in concentration (1.6 pg-100.0 pg) of phospholipids were spotted onto PVDF membranes as described in the methods section. Membranes were incubated with 0.5 μg/ml fusion proteins. Washed membranes were probed using with anti-GST antibody.
Pleckstrin homology (PH) fusion proteins GST-PH1, GST-PH2 and GST-DAPP1, were purified from bacteria by affinity chromatography. A Far Western Blot procedure was used for detecting the fusion protein binding to nitrocellulose immobilized phospholipids (Stevenson, J. Met. al., 1998); PIP strips and PIP arrays were purchased from Echelon, Inc. Overlay assays measured the relative amounts of GST-tagged fusion protein bound to spotted phospholipids. […]

For assay [2], the target named is T2, PH1 domain of AFAP-110 (Gallus gallus, UniProt Q90738).
T2 construct: AFAP-110 contains two PH domains, one amino terminal (PH1) and the other carboxy terminal (PH2); made in house; host or cells: bacteria
Description: Lipid binding assay (Far Western), GST-PH1. The conditions noted are these: 0.5 μg/ml fusion protein, lipids spotted on membrane. On the procedure:
as §2
B) Pleckstrin homology fusion protein, GST-PH1, was purified from bacteria by affinity chromatography. Two-fold changes in concentration (1.6 pg-100.0 pg) of phospholipids were spotted onto PVDF membranes as described in the methods section. The PIP arrays were incubated with 0.5 μg/ml fusion protein and probed with anti-GST antibody.
Pleckstrin homology (PH) fusion proteins GST-PH1, GST-PH2 and GST-DAPP1, were purified from bacteria by affinity chromatography. A Far Western Blot procedure was used for detecting the fusion protein binding to nitrocellulose immobilized phospholipids (Stevenson, J. Met. al., 1998); PIP strips and PIP arrays were purchased from Echelon, Inc. Overlay assays measured the relative amounts of GST-tagged fusion protein bound to spotted phospholipids. A plasmid encoding GST-DAPP1 previously shown to bind Ptdlns-3,4-P2 and Ptdlns-3,4,5-P3 (Dowler, S. et. al., 1999) was used as a control, kindly provided by Mark Lemmon (Lemmon, M. A., 2003). The membranes were wetted with methanol and then transferred to blocking solution composed of 3% BSA in TBS containing 1% Tween-20 (TBS-T) for 1 hour at 4° C. Membranes were incubated with 0.5 μg/ml each fusion proteins in TBS-T overnight at 4° C. Following incubation, membranes were rinsed three times with TBS-T, washed for 5 minutes and incubated at 4° C. for 1 hour with anti-GST antibody (1:20000 in TBS-T). Following the standard wash procedure, membranes were incubated at 4° C. for 30 minutes with peroxidase-conjugated secondary antibody (1:30000 in TBS-T). The washed membranes were incubated with chemiluminescence reagent and exposed to X-ray film.

Assay [3] addresses T2, PH1 domain of AFAP-110. Description: Lipid sedimentation assay, GST-PH1. The class given is binding. The conditions noted are these: PC vesicles with lipid 19:1 (PC:PS 7:3), 0.025 mM GST fusion protein. On the procedure: E) Lipid sedimentation assay was performed using pleckstrin homology fusion protein GST-PH1 as described in the methods sections. The GST-PH1 fusion protein has the capacity to co-sediment with several lipids containing vesicles as indicated in the pellet (P). Soluble fractions (S) containing unbound GST-PH1 purified fusion proteins were resolved by SDS-PAGE and detected by Coomassie stain.
A sedimentation assay was used to detect PH domain protein association with membrane phospholipids. Phospholipid stock solutions: 1 mg/ml L-α-Ptdlns-4-P, 1.0 mg/ml 1,2-dipalmitoyl-sn-glycero-3-Ptdlns-3-P, 0.1 mg/ml 1,2-dioleoyl-sn-glycero-3-Ptdlns-3,4-P2, and 1 mg/ml L-α-Ptdlns-4,5-P2 in chloroform:methanol:water (60:30:4). However, 10 mg/ml L-α-phosphatidylinositol, 0.1 mg/ml L-α Ptdlns-3-P, 0.2 mg/ml L-α-Ptdlns-3,4,5-P3, 10 mg/ml L-α-phosphatidylserine, and 10 mg/ml L-α-phosphatidylcholine in chloroform neat. All lipid stocks were purged with dry N2 and stored −20° C. The lipid vesicles were prepared as follows utilizing a sonication method. Briefly, in a heavy walled tube, PC and another stock phospholipid (e.g. Ptdlns, Ptdlns-3-P, Ptdlns-4-P, Ptdlns-3,4-P2, Ptdlns-3,5-P2, Ptdlns-3,4,5-P3, or PC) were combined in a 19:1 molar ratio; PC and PS were combined in a 7:3 molar ratio. Lipids were dried with a stream of N2 and traces of solvent were removed by vacuum and resuspended to 5.2 mM PC in buffer B [10 mM HEPES, pH 7.5, 50 mM KCl, 0.5 mM EGTA, and 1.0 mM MgCl2]. The resulting phospholipid sheets were sonicated to form vesicles. Samples were prepared to contain 1.7 mM vesicle PC and 0.025 mM recombinant GST fusion protein (DAPP1 or PH1) in buffer B. Samples were incubated 60 min and centrifuged with a Beckman Airfuge for 15 min at room temperature. 16% of the supernatant and 100% of the pellet from each sample was used for analysis by Laemmli method of SDS polyacrylamide gel electrophoresis. The gels were stained with SYPRO Orange or Coomassie Blue to visualize the proteins.

Where [4] appears, read: SYF cells co-expressing GFP-AFAP-110 and cSrc, pretreatment 6 μM bisindolylmaleimide, 10 μM LY294002 or 50 nM Wortmannin.

T2 sequence (Q90738 153-249 limits assumed): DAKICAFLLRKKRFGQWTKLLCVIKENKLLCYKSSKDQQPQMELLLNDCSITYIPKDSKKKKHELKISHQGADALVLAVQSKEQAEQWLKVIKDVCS

Take `CN(C)CCCn1cc(C2=C(c3c[nH]c4ccccc34)C(=O)NC2=O)c2ccccc21` [bisindolylmaleimide [I]]: the “PMA-induced translocation of cSrc from the perinuclear region to the cell periphery” value in the assay on cSrc was “blocked”. Further, in assay [1] (setting [4]), the “PMA-induced cSrc activation (phospho-Src-family Tyr416)” value was “blocked” and the “PMA-induced colocalization of AFAP-110 with cSrc” value is given as “blocked”. Moreover, in assay [1] (SYF cells, pretreatment 6 μM bisindolylmaleimide or 10 μM LY294002), the “PMA-induced associated morphological changes” value was “blocked”. Also, the “PMA-induced Ptdlns-3,4,5-P3 production” value in the assay with PI3K is on record as “blocked”.
Regarding “Phosphoinositol-3,4,5-trisphosphate [Ptdlns-3,4,5-P3]”, the “binding of GST-DAPP1 to immobilized phospholipid (far western)” value on PH domain of DAPP1 was “binds well”. The “binding of GST-PH1 to immobilized phospholipid (far western)” value on PH1 domain of AFAP-110 [2] is listed as “binding the weakest”. Besides, the “binding (co-sedimentation) of GST-PH1 to lipid vesicles containing the lipid” value at PH1 domain of AFAP-110 [3] was “low”.

The values are drawn from US20080234232A1, “Methods and compositions for targeting AFAP” (priority 2007, published 2008).
